Assay results taken from paper PMC8953385, “2-Styrylchromones: Cytotoxicity and Modulation of Human Neutrophils’ Oxidative Burst” (Pharmaceuticals, 2022).

Assays:
[1] = system: human neutrophils’ oxidative burst; experiment: Neutrophils’ oxidative burst, PMA stimulation, luminol chemiluminescence; assay type: cell-based; conditions: Homo sapiens, Neutrophil
Text: (§1) Following the Declaration of Helsinki and the approval of patient-related procedures and protocols by the Ethics Committee of Centro Hospitalar do Porto, Portugal, venous blood was collected from healthy human blood donors, after informed consent. The blood was stored into K3EDTA vacuum tubes after antecubital venipuncture of the donors. In order to obtain the isolated neutrophils, the density gradient centrifugation method was applied, as previously reported, with modifications. In brief, in a 15 mL polypropylene tube, 3 mL of histopaque 1119 were added followed by 3 mL of histopaque 1077 and finally, 4.5 mL of the collected blood were slowly added. Each tube was centrifuged at 900× g at 20 °C for 30 min, with a medium acceleration and deceleration speed. Following centrifugation, the neutrophils’ portion was harvested, and PBS was added to double the volume. The neutrophils’ suspension was then centrifuged at 850× g at 4 °C for 5 min, using a maximum acceleration and deceleration speed. The supernatant was discarded, and the neutrophils’ pellet was resuspended in PBS and afterward milli-Q water was added to lyse the residual erythrocytes. The tube was gently homogenized and after a few minutes, 3% NaCl was added to restore isotony, and then centrifuged again at 850× g at 4 °C for 5 min, using a maximum acceleration and deceleration speed. The supernatant was discarded, and a neutrophils’ pellet was obtained. After isolation, the neutrophils’ pellet was resuspended in the incubation media, tris-glucose buffer (25 mM Trizma® base, 5.5 mM D-glucose, 140 mM NaCl, 1.26 mM CaCl2, 0.81 mM MgSO4, 5.37 mM KCl, pH = 7.4). Neutrophils’ suspension was kept on ice, under soft shaking, until use. The trypan blue exclusion method was used to determine cells’ yield and viability.
The effect of 2-SC on the modulation of neutrophils’ oxidative burst was assessed after the stimulation of these cells with PMA by monitoring the oxidation of chemiluminescent probe, luminol, by the generated reactive species (Figure S2), according to a previously described methodology. Briefly, neutrophils (1 × 10^6 cells/mL) were pre-incubated with luminol (500.00 μM), and 2-SC (0.00–100.00 μM) or DMSO, at the final concentrations indicated. After this pre-incubation, at 37 °C for 5 min, PMA (160.00 nM) was added, and in turn, neutrophils’ stimulation was initiated. Kinetic readings were immediately initiated and followed for 40 min, at 37 °C, in a microplate reader. The arbitrary chemiluminescence value was taken at the peak of the curve, and the results were expressed as the inhibition percentage of luminol oxidation.
GraphPad Prism 6 software was used to plot the curves of percentage of inhibition versus concentrations of compound, from which the concentration that produces 50% of inhibition (IC50) was determined. GraphPad Prism 6 software was also used to perform all statistical analyses. […] In all cases, p-values < 0.05 were considered statistically significant. The results are expressed as mean ± standard error of the mean (SEM).

human neutrophils = experiment: Annexin V/PI flow cytometric assay of neutrophils’ viability; assay type: cell-based; conditions: for Higher 2-SC concentration that did not affect human neutrophils’ viability: annexin V/PI assay, 40 min incubation at 37 °C
Text: as §1
(§2) The effect of the studied 2-SC on neutrophils’ viability was assessed by flow cytometry, after simultaneous staining with FITC Annexin V and propidium iodide (PI) (Figure S1), as previously reported by our research group, with modifications. After isolation, neutrophils (1 × 10^6 cells/mL) were incubated with 2-SC (up to 100.00 μM) or DMSO for 40 min, at 37 °C, in a 48-well plate. At the end of incubation, the content of each well was transferred to conical microtubes and centrifuged at 400× g at 20 °C for 5 min. After discarding the supernatant, the neutrophils’ pellet was resuspended in PBS and centrifuged under the previous conditions. Once the supernatant was removed, the pellet was resuspended in 10× diluted binding buffer, and then PI and annexin V were added. This mixture was incubated in the dark at room temperature for 15 min, and finally, 10× diluted binding buffer was added. In a flow cytometer, the fluorescence signal, of at least 10,000 cells/sample, were collected in logarithmic mode and followed in channels 1 and 3. The green fluorescence corresponding to annexin V FITC was accompanied in channel 1 and plotted as a histogram of FL1 staining, whereas the fluorescence corresponding to PI was monitored in channel 3 and plotted in the same histogram but as FL3 staining. The collected data were analyzed with the BD Accuri™ C6 software. The data analysis was restricted to the neutrophils’ population. Thus, according to the light-scattering properties of neutrophils (in a forward versus side scatter plot), a polygon gate was drawn, where debris and other blood cells were excluded. The effect of 2-SC on neutrophils’ viability was expressed as a relative percentage of apoptotic and/or necrotic cells when compared to the control (without 2-SC).

[2] = as above; assay type: cell-based, human; conditions: human, isolated human neutrophils, pH 7.4, representative plot, Figure 4, read-out: Viable cells [annexin V (−)/PI (−)], lower left quadrant
Text: as §1, §2

[3] = O2•−, cited from earlier work

| SMILES | inhibition at 25 µM ([1]; 25.00 µM (highest tested concentration), read-out: Inhibitory activity (% ± SEM), neutrophils’ oxidative burst) [%] | Effect on total neutrophils’ population percentage (human neutrophils; 50.00 μM) | Induction of late apoptosis (human neutrophils; 50.00 μM) | Higher 2-SC concentration that did not affect human neutrophils’ viability (human neutrophils) [µM] | viability at 40 min, 25 µM ([2]; 25.00 μM) [%] | viability at 40 min, 50 µM ([2]; 50.00 μM) [%] | Scavenging of reactive species ([3]; H2O2, HOCl, 1O2, •NO, ONOO−) | IC50 ([1]; PMA 160.00 nM, luminol 500.00 μM, mean ± SEM, read-out: IC50, inhibition of human neutrophils’ oxidative burst) [µM] | Scavenging activity of reactive species ([3]; 1O2, •NO and ONOO−) |
| --- | --- | --- | --- | --- | --- | --- | --- | --- | --- |
| O=c1cc(/C=C/c2ccccc2)oc2cc(O)cc(O)c12 [A4] | < 30 | significantly affected the total neutrophils’ population percentage | induced late apoptosis | 25.00 | 88.4 | 63.8 | – | – | – |
| O=c1cc(/C=C/c2ccc(O)cc2)oc2cccc(O)c12 [B2] | – | – | – | 6.25 | – | – | much less active or inactive | – | – |
| COc1ccc(/C=C/c2cc(=O)c3ccc(O)c(O)c3o2)cc1OC [C8] | – | – | – | 6.25 | – | – | – | 1.4 ± 0.2 | good scavenging activity |
